Reference: PubChem BioAssay (NCI)
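GI50 marks 50% less growth. At the TGI there is no net growth.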

Tests used:
Assay in all cases: DTP human tumour cell line panel, 384-well format
[1] = tested on: COLO 205 colon
[2] = tested on: HS 578T breast
[3] = tested on: RPMI-8226 leukemia
[4] = tested on: EKVX NSCLC
[5] = tested on: SR leukemia
[6] = tested on: MOLT-4 leukemia
[7] = tested on: MDA-MB-231 breast
[8] = tested on: SNB-19 CNS
[9] = tested on: SF-539 CNS
[10] = tested on: KM12 colon
[11] = tested on: U251 glioblastoma
[12] = tested on: UACC-62 melanoma
[13] = tested on: NCI-H226 lung

O=C(c1ccccc1O)c1[nH]c(Cl)c(Cl)c1-n1c(C(=O)c2ccccc2O)cc(Cl)c1Cl
GI50 [1]: 747 nM | TGI [1]: 3800 nM | GI50 [2]: 157 nM | TGI [2]: 440 nM | GI50 [3]: 196 nM | TGI [3]: 388 nM | GI50 [4]: 230 nM | TGI [4]: 842 nM | GI50 [5]: 340 nM | TGI [5]: 1100 nM | GI50 [6]: 301 nM | TGI [6]: 768 nM | GI50 [7]: 424 nM | TGI [7]: 1450 nM | GI50 [8]: 373 nM | TGI [8]: 3960 nM | GI50 [9]: 537 nM | TGI [9]: 1630 nM | GI50 [10]: 537 nM | TGI [10]: 1930 nM | GI50 [11]: 331 nM | TGI [11]: 1130 nM | GI50 [12]: 599 nM | TGI [12]: 1860 nM | GI50 [13]: 634 nM | TGI [13]: 1890 nM
